Experimental data taken from patent US9353088B2, “Crystalline pharmaceutical and methods of preparation and use thereof” (SARcode Bioscience Inc., priority 2009, dated 2016).

Assay: Dynamic Vapor Sorption (DVS) analysis
Type: physicochemical
Procedure: Dynamic Vapor Sorption (DVS) analysis was performed with a Surface Measurement Systems DVS-1 water vapor sorption analyzer. The experiments were run by placing the sample on a quartz holder on top of a microbalance, and allowing the sample to equilibrate at 50% relative humidity (r.h.) before starting the pre-defined humidity program. The program proceeded in the following steps: 1 hour at 50% r.h.; 50% to 0% r.h. at a rate of 5% r.h. change per hour; 5 hours at 0% r.h; 0% r.h to […]. at 5% r.h change per hour; 5 hours at 95% r.h.; 95% r.h. to 50% r.h. at a rate of 5% r.h. change per hour, and followed by one hour at 50% r.h.

CS(=O)(=O)c1cccc(C[C@H](NC(=O)c2c(Cl)cc3c(c2Cl)CCN(C(=O)c2ccc4ccoc4c2)C3)C(=O)O)c1 [Crystalline Form A]
water content by DVS (after mass loss at lowest relative humidity of 0.4%): 0.5 mole water per mole free acid
water content by DVS (at the start of the experiment): about 0.9 mole water per mole free acid
water content by DVS (mass gain at 95% relative humidity): 1.1 mole water per mole free acid

CS(=O)(=O)c1cccc(C[C@H](NC(=O)c2c(Cl)cc3c(c2Cl)CCN(C(=O)c2ccc4ccoc4c2)C3)C(=O)O)c1 [Crystalline Form B]
hygroscopicity (DVS, 50 hours, 5 hours at 95% relative humidity): does not appear to be hygroscopic
